From patent US11834428B2, “Dihydromyricetin nanocrystals and preparation method and application thereof” (Shaanxi University of Science and Technology, priority 2022, dated 2023)
≈ marks a conversion by molar mass, not a printed value.

Legend:
[1] = Particle size of dihydromyricetin nanocrystals; assay type: physicochemical; details: API
Protocol: In order to describe the dihydromyricetin nanocrystals provided by the disclosure, the relevant properties of the embodiments 1 to 6 and the comparative embodiments are measured. 1. The Effect of Stabilizers on the Particle Size and Solubilization Effect of the Dihydromyricetin Nanocrystals, See Table 1.

[2] = Solubility of dihydromyricetin nanocrystals and API (solubility in cold water); assay type: physicochemical; details: for solubility: cold water
From the text: 1. The Effect of Stabilizers on the Particle Size and Solubilization Effect of the Dihydromyricetin Nanocrystals, See Table 1.

Particle size [1]: ≥12 μm
solubility ([2]; aqueous with cosolvent or surfactant or cyclodextrin, stabilizer sodium dodecyl sulfate (SDS)): 300 µg/mL (≈ 937 µM)
solubility ([2]; water, no stabilizer (/)): 40 µg/mL (≈ 125 µM)
Solubility in cold water ([2]; stabilizer Tween-80): 0.6 mg/mL (≈ 1870 µM)
Structure (SMILES): O=C1c2c(O)cc(O)cc2O[C@H](c2cc(O)c(O)c(O)c2)[C@H]1O [Dihydromyricetin API, Dihydromyricetin]
